Laboratory results from patent publication US20080051419A1, “AMINE DERIVATIVES USEFUL AS ANTICANCER AGENTS” (PFIZER INC., priority 2006, published 2008).
pIC50: −log10 of the molar value. Where two headings read alike, the source gives them in different places.

Target: T1, Akt1 (Homo sapiens, UniProt P31749, S473D)
T1 construct: The version of Akt used in these studies lacks the pleckstrin homology (PH) domain
Experiment: Akt1 kinase assay, fluorescence polarization (IMAP)
Assay type: biochemical
Conditions: for pIC50: Table 1, concentration bins, read-out: Concentration Range at which exemplary compounds of formula I inhibit Akt kinase activity; for IC50: read-out: Avg Akt kinase, μM (50% inhibition)
Method: The Akt1 kinase assay is based on the measurement of fluorescence polarization using IMAP technology (Molecular Devices Corporation #R8062). Two microliters of inhibitor compounds diluted to a concentration of 10 millimolar are added to column 2 of a polypropylene 96-well plate containing 98 microliters of 100% DMSO; the wells in columns 3-12 contain 60 microliters of 100% DMSO. The various test compounds are serially diluted 1:3 across the plate by pipetting 30 microliters of compounds into wells containing 60 microliters of 100% DMSO. Column 12 receives DMSO only and is used as a negative control for inhibition. The components of the wells are mixed and 15 microliters of each well are transferred to another 96-well plate already containing 60 microliters of reaction buffer (RB: 10 mM Tris-HCl, pH 7.5, 10 mM MgCl2, 0.1 mM EGTA, 0.01% Triton-X100 (Sigma #X-100), freshly added 1 mM DTT). After mixing, the […] reactions are assembled. First, five microliters of the above compound/reaction buffer mixture is transferred to the bottom of a 96-well black polystyrene reaction plate (Costar, #3694). Next, ten microliters of a solution containing 4 micromolar ATP and 40 nanomolar fluorescent-labeled Crosstide (Tamara-labeled […] peptide) are added. Then, 5 microliters (1.5 nanograms) of Akt protein in RB are added. The version of Akt used in these studies lacks the pleckstrin homology (PH) domain, and contains an aspartic acid residue in place of a serine residue in position 473 within the Akt1 hydrophobic motif. The Akt1 protein contains a polyhistidine tag at the amino terminus and is prephosphorylated on threonine at position 308 in order to activate latent kinase activity. Once the reaction components and inhibitors are assembled, the plates are gently tapped, covered with foil, and then incubated at ambient temperature for 30 minutes. IMAP beads (Molecular Devices) are then added (60 microliters of a 1:400 dilution of beads in RB). Plates are read on a Victor Plate Reader with the following settings: CW lamp filter: 544 nm, emission filter: 615 nm. Control values from wells lacking Akt protein are subtracted from the gross readings, and IC50 values are calculated using XLDA.

[1] = average Akt kinase activity (IC50)

T1 sequence (P31749 118-480 S473D limits assumed, species assumed): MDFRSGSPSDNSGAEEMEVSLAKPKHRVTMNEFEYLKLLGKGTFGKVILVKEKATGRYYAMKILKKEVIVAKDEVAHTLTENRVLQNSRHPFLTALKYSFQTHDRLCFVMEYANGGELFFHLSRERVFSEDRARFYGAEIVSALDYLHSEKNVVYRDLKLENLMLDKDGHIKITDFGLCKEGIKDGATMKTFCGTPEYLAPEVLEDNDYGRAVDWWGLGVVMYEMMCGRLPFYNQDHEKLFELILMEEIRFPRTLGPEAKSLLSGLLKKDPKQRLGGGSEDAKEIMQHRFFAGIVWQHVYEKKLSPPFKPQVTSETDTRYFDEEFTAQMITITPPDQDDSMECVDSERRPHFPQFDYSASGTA

pIC50	IC50 [1] [µM]	IC50 (Table 3) [µM]	Compound
7.00 to 8.00	0.0135		Cc1cccc(C(=O)NC[C@@]2(N)CCN(c3ncnc4[nH]cc(C)c34)C2)c1Cl [Example 117]
7.00 to 8.00	0.015		Cc1c[nH]c2ncnc(N3CC[C@](N)(CNC(=O)c4cc(F)ccc4F)C3)c12 [Example 101, N-{[(3S)-3-amino-1-(5-methyl-7H-pyrrolo[2,3-d]pyrimidin-4-yl)pyrrolidin-3-yl]methyl}-2,5-difluorobenzamide]
7.00 to 8.00	0.014		Cc1c[nH]c2ncnc(N3CC[C@](N)(CNC(=O)c4ccc(Cl)cc4F)C3)c12 [Example 102, N-{[(3S)-3-amino-1-(5-methyl-7H-pyrrolo[2,3-d]pyrimidin-4-yl)pyrrolidin-3-yl]methyl}-4-chloro-2-fluorobenzamide]
8.60 to 9.60	0.0018		CCc1c[nH]c2ncnc(N3CC[C@](N)(CNC(=O)c4ccc(Cl)cc4)C3)c12 [Example 88]
7.00 to 8.00	0.0147		CCc1c[nH]c2ncnc(N3CC[C@](N)(CNC(=O)c4ccccc4Cl)C3)c12 [Example 128]
8.00 to 8.60	0.00377		Cc1cc(C(=O)NC[C@]2(N)CCN(c3ncnc4[nH]cc(Cl)c34)C2)no1 [Example 79]
7.00 to 8.00	0.0395		N#Cc1c[nH]c2ncnc(N3CC[C@](N)(CNC(=O)c4cccc(F)c4F)C3)c12 [Example 90]
		0.331	3-{[(4-chlorophenyl)amino]methyl}-1-(1H-pyrrolo[2,3-b]pyridin-4-yl)pyrrolidin-3-amine [Example 17]
8.00 to 8.60		0.00329	Cc1c[nH]c2ncnc(N3CC[C@](N)(CNc4cccc(F)c4)C3)c12 [Example 37, (3S)-3-{[(3-fluorophenyl)amino]methyl}-1-(5-methyl-7H-pyrrolo[2,3-d]pyrimidin-4-yl)pyrrolidin-3-amine]
	1.14		(E)-3-(3-trifluoromethyl)styryl)-1-(5-methyl-7H-pyrrolo[2,3-d]pyrimidin-4-yl)-3-amine [Example 68]
7.00 to 8.00		0.0293	Cc1cc(CNC[C@@]2(N)CCN(c3ncnc4[nH]cc(C)c34)C2)no1 [Example 53, (3S)-3-({[(5-methylisoxazol-3-yl)methyl]amino}methyl)-1-(5-methyl-7H-pyrrolo[2,3-d]pyrimidin-4-yl)pyrrolidin-3-amine]
8.00 to 8.60	0.00674		N[C@]1(CNC(=O)c2cccc(F)c2)CCN(c2ncnc3[nH]cc(Cl)c23)C1 [Example 104, N-{[(3S)-3-amino-1-(5-chloro-7H-pyrrolo[2,3-d]pyrimidin-4-yl)pyrrolidin-3-yl]methyl}-3-fluorobenzamide]
8.00 to 8.60	0.01		Cc1ccccc1C(=O)NC[C@@]1(N)CCN(c2ncnc3[nH]cc(Cl)c23)C1 [Example 131]
8.60 to 9.60		0.002	Cc1c(Cl)cccc1NCC1(N)CCN(c2ncnc3[nH]cc(Cl)c23)C1 (stereo not drawn) [Example 43, 3-{[(3-chloro-2-methylphenyl)amino]methyl}-1-(5-chloro-7H-pyrrolo[2,3-d]pyrimidin-4-yl)pyrrolidin-3-amine]
8.60 to 9.60	0.0011		N[C@]1(CNC(=O)c2ccc(F)cc2Cl)CCN(c2ncnc3[nH]cc(Cl)c23)C1 [Example 107, N-{[(3S)-3-amino-1-(5-chloro-7H-pyrrolo[2,3-d]pyrimidin-4-yl)pyrrolidin-3-yl]methyl}-2-chloro-4-fluorobenzamide]
7.00 to 8.00	0.0176		Cc1c[nH]c2ncnc(N3CC[C@](N)(CNC(=O)c4ccc(F)c(F)c4)C3)c12 [Example 114]
8.60 to 9.60		0.002	Cc1c[nH]c2ncnc(N3CCC(N)(CNc4cccc(Cl)c4Cl)C3)c12 (stereo not drawn) [Example 26, 3-{[(2,3-dichlorophenyl)amino]methyl}-1-(5-methyl-7H-pyrrolo[2,3-d]pyrimidin-4-yl)pyrrolidin-3-amine]

pIC50	IC50 [1] [µM]	IC50 (Table 3) [µM]	Compound
7.00 to 8.00	0.0418		Cc1cccc(F)c1C(=O)NC[C@@]1(N)CCN(c2ncnc3[nH]cc(C)c23)C1 [Example 121]
7.00 to 8.00	0.0175		N#Cc1c[nH]c2ncnc(N3CC[C@](N)(CNC(=O)c4ccc(Cl)cc4)C3)c12 [Example 86]
5.00 to 7.00	0.523		COCCN(CC1(N)CCN(c2ncnc3[nH]cc(C)c23)C1)C(=O)Nc1ccccc1 (stereo not drawn) [Example 76, 1-{[3-amino-1-(5-methyl-7H-pyrrolo[2,3-d]pyrimidin-4-yl)pyrrolidin-3-yl]methyl}-1-(2-methoxyethyl)-3-phenylurea]
7.00 to 8.00	0.0111		N[C@]1(CNC(=O)c2ccc(Cl)cc2F)CCN(c2ncnc3[nH]cc(Cl)c23)C1 [Example 84, N-{[(3S)-3-amino-1-(5-chloro-7H-pyrrolo[2,3-d]pyrimidin-4-yl)pyrrolidin-3-yl]methyl}-4-chloro-2-fluorobenzamide]
8.00 to 8.60	0.00424		N[C@]1(CNC(=O)c2ccccc2F)CCN(c2ncnc3[nH]cc(Cl)c23)C1 [Example 80, N-{[(3S)-3-amino-1-(5-chloro-7H-pyrrolo[2,3-d]pyrimidin-4-yl)pyrrolidin-3-yl]methyl}-2-fluorobenzamide]
7.00 to 8.00	0.0362		Cc1ccccc1C(=O)NC[C@@]1(N)CCN(c2ncnc3[nH]cc(C)c23)C1 [Example 127, N-{[(3S)-3-amino-1-(5-methyl-7H-pyrrolo[2,3-d]pyrimidin-4-yl)pyrrolidin-3-yl]methyl}-2-methylbenzamide]
8.00 to 8.60	0.00643		N[C@]1(CNC(=O)c2ccccc2Cl)CCN(c2ncnc3[nH]cc(Cl)c23)C1 [Example 85, N-{[(3S)-3-amino-1-(5-chloro-7H-pyrrolo[2,3-d]pyrimidin-4-yl)pyrrolidin-3-yl]methyl}-2-chlorobenzamide]
7.00 to 8.00	0.0107		CCc1c[nH]c2ncnc(N3CC[C@](N)(CNC(=O)c4cccc(F)c4)C3)c12 [Example 105, N-{[(3S)-3-amino-1-(5-ethyl-7H-pyrrolo[2,3-d]pyrimidin-4-yl)pyrrolidin-3-yl]methyl}-3-fluorobenzamide]
5.00 to 7.00		0.116	CCN(CC1(N)CCN(c2ncnc3[nH]cc(C)c23)C1)c1ccccc1 (stereo not drawn) [Example 50, 3-{[ethyl(phenyl)amino]methyl}-1-(5-methyl-7H-pyrrolo[2,3-d]pyrimidin-4-yl)pyrrolidin-3-amine]
8.60 to 9.60	0.000269		CCc1c[nH]c2ncnc(N3CC[C@](N)(CNC(=O)c4ccc(F)cc4F)C3)c12 [Example 73, N-{[(3S)-3-amino-1-(5-ethyl-7H-pyrrolo[2,3-d]pyrimidin-4-yl)pyrrolidin-3-yl]methyl}-2,4-difluorobenzamide]
8.00 to 8.60	0.00915		N[C@]1(CNC(=O)c2ccc(Cl)c(F)c2)CCN(c2ncnc3[nH]cc(Cl)c23)C1 [Example 83, N-{[(3S)-3-amino-1-(5-chloro-7H-pyrrolo[2,3-d]pyrimidin-4-yl)pyrrolidin-3-yl]methyl}-4-chloro-3-fluorobenzamide]
8.60 to 9.60		0.00226	Cc1c[nH]c2ncnc(N3CC[C@](N)(CNc4cccc(C(F)(F)F)c4)C3)c12 [Example 13, (3S)-1-(5-methyl-7H-pyrrolo[2,3-d]pyrimidin-4-yl)-3-({[3-(trifluoromethyl)phenyl]amino}-methyl)pyrrolidin-3-amine]
7.00 to 8.00		0.0354	NC1(CNc2cccc(C(F)(F)F)c2)CCN(c2ccnc3[nH]ccc23)C1 (stereo not drawn) [Example 42, 1-(1H-pyrrolo[2,3-b]pyridin-4-yl)-3-({[3-(trifluoromethyl)phenyl]amino}-methyl)pyrrolidin-3-amine]
8.00 to 8.60		0.00669	Cc1c[nH]c2ncnc(N3CCC(N)(CNc4cccc(C(F)(F)F)c4)C3)c12 (stereo not drawn) [Example 23, 1-(5-methyl-7H-pyrrolo[2,3-d]pyrimidin-4-yl)-3-({[3-(trifluoromethyl)phenyl]amino}-methyl)pyrrolidin-3-amine]
7.00 to 8.00	0.0255		Cc1c[nH]c2ncnc(N3CC[C@](N)(CNC(=O)c4c(F)ccc(F)c4F)C3)c12 [Example 120, N-{[(3S)-3-amino-1-(5-methyl-7H-pyrrolo[2,3-d]pyrimidin-4-yl)pyrrolidin-3-yl]methyl}-2,3,6-trifluorobenzamide]
8.00 to 8.60		0.00771	Cc1c[nH]c2ncnc(N3CCC(N)(CNc4ccc(F)cc4F)C3)c12 (stereo not drawn) [Example 34, 3-{[(2,4-difluorophenyl)amino]methyl}-1-(5-methyl-7H-pyrrolo[2,3-d]pyrimidin-4-yl)pyrrolidin-3-amine]
8.00 to 8.60	0.00923		N#Cc1c[nH]c2ncnc(N3CC[C@](N)(CNC(=O)c4ccc(F)cc4)C3)c12 [Example 94]
